Results as given in ChEMBL document CHEMBL5724914, “Linking interpersonal differences in gut microbiota composition and drug biotransformation activity” (2024).

How the values were obtained:
[1] = (§1) The drug is tested on Z-024 corresponding to pig gut metagenome with ENA study accession number: PRJEB37062 and ENA sample accession number: ERS12561823 for biotransformation under anaerobic condition. The drug concentrations were measured over 9 timepoints collected between 0 and 24 hours of incubation by liquid-chromatography-coupled mass spectrometry (LC–MS); conditions: 2 µM
[2] = as §1, with “Z-017” for “Z-024”, “mouse” for “pig”, “ERS12561816” for “ERS12561823”; conditions: 2 µM
[3] = as §1, with “Z-014” for “Z-024”, “rat” for “pig”, “ERS12561814” for “ERS12561823”; conditions: 2 µM
[4] = as §1, with “Z-011” for “Z-024”, “mouse” for “pig”, “ERS12561811” for “ERS12561823”; conditions: 2 µM
[5] = as §1, with “Z-007” for “Z-024”, “rat” for “pig”, “ERS12561807” for “ERS12561823”; conditions: 2 µM
[6] = as §1, with “Z-002” for “Z-024”, “rabbit” for “pig”, “ERS12561802” for “ERS12561823”; conditions: 2 µM
[7] = as §1, with “Z-001” for “Z-024”, “mouse” for “pig”, “ERS12561801” for “ERS12561823”; conditions: 2 µM
[8] = as §1, with “WLS-220” for “Z-024”, “human” for “pig”, “ERS12561769” for “ERS12561823”; conditions: 2 µM
[9] = as §1, with “WLS-073” for “Z-024”, “human” for “pig”, “ERS12561749” for “ERS12561823”; conditions: 2 µM
[10] = as §1, with “WLS-052” for “Z-024”, “human” for “pig”, “ERS12561747” for “ERS12561823”; conditions: 2 µM
[11] = as §1, with “WLS-027” for “Z-024”, “human” for “pig”, “ERS12561744” for “ERS12561823”; conditions: 2 µM
[12] = as §1, with “WLS-007” for “Z-024”, “human” for “pig”, “ERS12561742” for “ERS12561823”; conditions: 2 µM
[13] = as §1, with “WLS-006” for “Z-024”, “human” for “pig”, “ERS12561741” for “ERS12561823”; conditions: 2 µM
[14] = human gut metagenome, 24 h, 2 µM
[15] = human gut metagenome, 24 h, 2 µM; remark: listed apart in the source
[16] = human gut metagenome, 24 h, 2 µM; remark: listed apart in the source
[17] = human gut metagenome, 24 h, 2 µM; remark: listed apart in the source
[18] = human gut metagenome, 24 h, 2 µM; remark: listed apart in the source
[19] = human gut metagenome, 24 h, 2 µM; remark: listed apart in the source
[20] = human gut metagenome, 24 h, 2 µM; remark: listed apart in the source
Note: call rule not given here.

SMILES	Bacterial Biotransformation [1]	Bacterial Biotransformation [2]	Bacterial Biotransformation [3]	Bacterial Biotransformation [4]	Bacterial Biotransformation [5]	Bacterial Biotransformation [6]	Bacterial Biotransformation [7]	Bacterial Biotransformation [8]	Bacterial Biotransformation [9]	Bacterial Biotransformation [10]	Bacterial Biotransformation [11]	Bacterial Biotransformation [12]	Bacterial Biotransformation [13]	Bacterial Biotransformation [14]	Bacterial Biotransformation [15]	Bacterial Biotransformation [16]	Bacterial Biotransformation [17]	Bacterial Biotransformation [18]	Bacterial Biotransformation [19]	Bacterial Biotransformation [20]
CC[C@@]1(O)C(=O)OCc2c1cc1n(c2=O)Cc2cc3c(CN(C)C)c(O)ccc3nc2-1 [TOPOTECAN]	Compound NOT metabolized	Compound NOT metabolized	Compound NOT metabolized	Compound NOT metabolized	Compound NOT metabolized	Compound NOT metabolized	Compound NOT metabolized	Compound NOT metabolized	Compound NOT metabolized	Compound NOT metabolized	Compound NOT metabolized	Compound NOT metabolized	Compound NOT metabolized	Compound NOT metabolized	Compound NOT metabolized	Compound NOT metabolized	Compound NOT metabolized	Compound NOT metabolized	Compound NOT metabolized	Compound NOT metabolized
COc1cc(C(=O)NCc2ccc(OCCN(C)C)cc2)cc(OC)c1OC [TRIMETHOBENZAMIDE]	Compound NOT metabolized	Compound NOT metabolized	Compound NOT metabolized	Compound NOT metabolized	Compound NOT metabolized	Compound NOT metabolized	Compound NOT metabolized	Compound NOT metabolized	Compound NOT metabolized	Compound NOT metabolized	Compound NOT metabolized	Compound NOT metabolized	Compound NOT metabolized	Compound NOT metabolized	Compound NOT metabolized	Compound NOT metabolized	Compound NOT metabolized	Compound NOT metabolized	Compound NOT metabolized	Compound NOT metabolized
COc1ccc(C(CN(C)C)C2(O)CCCCC2)cc1 (stereo not given) [VENLAFAXINE]	Compound NOT metabolized	Compound NOT metabolized	Compound NOT metabolized	Compound NOT metabolized	Compound NOT metabolized	Compound NOT metabolized	Compound metabolized	Compound NOT metabolized	Compound NOT metabolized	Compound NOT metabolized	Compound NOT metabolized	Compound NOT metabolized	Compound NOT metabolized	Compound NOT metabolized	Compound NOT metabolized	Compound NOT metabolized	Compound NOT metabolized	Compound NOT metabolized	Compound metabolized	Compound NOT metabolized
CCOC(=O)C1=C[C@]2(CC)CCCN3CCc4c(n1c1ccccc41)[C@@H]32 [VINPOCETINE]	Compound metabolized	Compound NOT metabolized	Compound NOT metabolized	Compound NOT metabolized	Compound NOT metabolized	Compound metabolized	Compound NOT metabolized	Compound NOT metabolized	Compound metabolized	Compound metabolized	Compound metabolized	Compound NOT metabolized	Compound metabolized	Compound NOT metabolized	Compound NOT metabolized	Compound metabolized	Compound metabolized	Compound metabolized	Compound metabolized	Compound metabolized
C[C@@H](c1ncncc1F)[C@](O)(Cn1cncn1)c1ccc(F)cc1F [VORICONAZOLE]	Compound metabolized	Compound NOT metabolized	Compound NOT metabolized	Compound NOT metabolized	Compound NOT metabolized	Compound metabolized	Compound NOT metabolized	Compound metabolized	Compound metabolized	Compound metabolized	Compound metabolized	Compound metabolized	Compound metabolized	Compound metabolized	Compound metabolized	Compound metabolized	Compound metabolized	Compound metabolized	Compound metabolized	Compound metabolized
CCN(C(C)=O)c1cccc(-c2ccnc3c(C#N)cnn23)c1 [ZALEPLON]	Compound NOT metabolized	Compound NOT metabolized	Compound NOT metabolized	Compound NOT metabolized	Compound NOT metabolized	Compound metabolized	Compound NOT metabolized	Compound metabolized	Compound metabolized	Compound metabolized	Compound metabolized	Compound metabolized	Compound metabolized	Compound NOT metabolized	Compound NOT metabolized	Compound metabolized	Compound metabolized	Compound metabolized	Compound metabolized	Compound metabolized
